Measured values: ChEMBL document CHEMBL4715699, “Design, synthesis and biological evaluation of 1,3,6-trisubstituted β-carboline derivatives for cytotoxic and anti-leishmanial potential” (Bioorg Med Chem Lett, 2016)
pIC50: −log10 of the molar value. Calls of active or inactive are those of the source. The calls are words filed in the database; no cut-off is given here.

Experiments:
[1] = tested on: Leishmania donovani; experiment: Antileishmanial activity against Leishmania donovani MHOM/80/IN/Dd8 promastigotes infected in THP-1 cells assessed as measured after 48 hrs by MTT assay; format: functional, organism-based; conditions: for pIC50: Leishmania donovani, MHOM/80/IN/Dd8, THP-1, 48 h, read-out: IC50
[2] = Solubility of the compound in 20% DMSO; format: physicochemical
[3] = tested on: A549; experiment: Cytotoxicity against human A-549 cells assessed as reduction in cell viability at 10 uM measured after 24 hrs by MTT assay relative to control; format: functional, cell-based; conditions: A549, 24 h
[4] = tested on: HeLa; experiment: Cytotoxicity against human HeLa cells assessed as reduction in cell viability at 10 uM measured after 24 hrs by MTT assay relative to control; format: functional, cell-based
[5] = tested on: HepG2; experiment: Cytotoxicity against human HepG2 cells assessed as reduction in cell viability at 10 uM measured after 24 hrs by MTT assay relative to control; format: functional, cell-based; conditions: HepG2, 24 h
[6] = tested on: MCF7; experiment: Cytotoxicity against human MCF-7 cells assessed as reduction in cell viability at 10 uM measured after 24 hrs by MTT assay relative to control; format: functional, cell-based; conditions: MCF7, 24 h
[7] = tested on: L132; experiment: Cytotoxicity against human L-132 cells assessed as reduction in cell viability at 10 uM measured after 24 hrs by MTT assay relative to control; format: cell-based; conditions: L132, 24 h
[8] = tested on: A549; experiment: Induction of apoptosis in human A549 cells at 10 uM measured after 6 hrs by Annexin V/Propidium iodide staining based confocal microscopy; format: functional, cell-based
[9] = tested on: MCF7; experiment: Induction of apoptosis in human MCF7 cells at 10 uM measured after 6 hrs by Annexin V/Propidium iodide staining based confocal microscopy; format: functional, cell-based
[10] = tested on: THP-1; experiment: Cytotoxicity against differentiated human THP-1 cells measured after 48 hrs by MTT assay; format: cell-based; conditions: THP-1, 48 h
[11] = Selectivity index, ratio of IC50 for differentiated human THP-1 cells to IC50 for Leishmania donovani MHOM/80/IN/Dd8 promastigotes; format: toxicity; conditions: differentiated THP-1 cells, read-out: Ratio IC50
[12] = Inhibition of IKK in human HeLa S3 cells using biotinylated IkaapaB-alpha by ELISA phosphorylation assay; format: cell-based
[13] = Inhibition of IKK (unknown origin); design: species or system Homo sapiens

For `CCCCCCCCCCCC(=O)Nc1ccc2[nH]c3c(C)nc(C(=O)OC)cc3c2c1`, the IC50 [1] was “Nd(Insoluble)” and the solubility [2] was “Insoluble”.

Work on `COC(=O)c1cc2c([nH]c3ccc([N+](=O)[O-])cc32)c(C)n1` yielded a pIC50 [1] of less than 4.00.

With `COC(=O)c1cc2c([nH]c3ccc(NC(=O)Oc4ccc([N+](=O)[O-])cc4)cc32)c(C)n1` the IC50 [1] was “Nd(Insoluble)” and the solubility [2] was “Insoluble”.

With `COC(=O)c1cc2c([nH]c3ccc(NC(=O)c4ccc(Br)cc4)cc32)c(C)n1` the IC50 [1] was “Nd(Insoluble)” and the solubility [2] was “Insoluble”.

In the case of `COC(=O)c1cc2c([nH]c3ccc(NC(=O)c4ccc5ccccc5c4)cc32)c(C)n1`, the IC50 [1] was “Nd(Insoluble)” and the solubility [2] was “Insoluble”.

Work on `COC(=O)c1cc2c([nH]c3ccc(NC(=O)c4ccccc4C(F)(F)F)cc32)c(C)n1` yielded a pIC50 [1] of less than 4.00.

In the case of `COC(=O)c1cc2c([nH]c3ccc(NC(=O)c4cc(C(F)(F)F)cc(C(F)(F)F)c4)cc32)c(C)n1`, the pIC50 [3] was 4.81, the pIC50 [4] was 5.28 and the pIC50 [5] was 5.21. For the same compound, the pIC50 [6] was 4.87, the pIC50 [7] was 4.95 and the Activity [8] was “Active”. For the same compound, the Activity [9] was “Active”, the IC50 [1] was “Nd(Insoluble)” and the solubility [2] was “Insoluble”.

Compound `COC(=O)c1cc2c([nH]c3ccccc32)c(C)n1` has a pIC50 [3] of 4.42, a pIC50 [4] of 4.45 and a pIC50 [5] of 4.40. The pIC50 [6] was 4.35, the pIC50 [7] was 4.41 and the pIC50 [1] was 5.05. It also gave a pIC50 [10] of less than 4.00 and a selectivity ratio [11] greater than 11.1.

`COC(=O)c1cc2c([nH]c3ccc(NC(=O)c4cc(C)oc4C)cc32)c(C)n1` showed a pIC50 [1] of less than 4.00.

Compound `CCCCC(=O)Nc1ccc2[nH]c3c(C)nc(C(=O)OC)cc3c2c1` has a pIC50 [1] of less than 4.00.

For `COC(=O)c1cc2c([nH]c3ccc(NC(=O)/C=C/c4ccccc4)cc32)c(C)n1`, the IC50 [1] was “Nd(Insoluble)” and the solubility [2] was “Insoluble”.

For `COC(=O)c1cc2c([nH]c3ccc(NC(=O)COc4ccccc4)cc32)c(C)n1`, the IC50 [1] was “Nd(Insoluble)” and the solubility [2] was “Insoluble”.

With `CC(=O)O[C@@]12CO[C@@H]1C[C@H](O)[C@@]1(C)C(=O)[C@H](O)C3=C(C)[C@@H](OC(=O)[C@H](O)[C@@H](NC(=O)OC(C)(C)C)c4ccccc4)C[C@@](O)([C@@H](OC(=O)c4ccccc4)[C@H]21)C3(C)C` [DOCETAXEL ANHYDROUS] the pIC50 [3] was 5.47, the pIC50 [4] was 5.49 and the pIC50 [5] was 5.54. The pIC50 [6] was 5.44 and the pIC50 [7] was 5.77.

`COC(=O)c1cc2c([nH]c3ccc(NC(C)=O)cc32)c(C)n1` gave a pIC50 [1] of less than 4.00.

For `COC(=O)c1cc2c([nH]c3ccc(NC(=O)c4ccco4)cc32)c(C)n1`, the pIC50 [1] was less than 4.00.

Compound `CCCCCCCCCCCCCCCCOP(=O)([O-])OCC[N+](C)(C)C` [MILTEFOSINE] has a pIC50 [1] of 4.92, a pIC50 [10] of 4.50 and a selectivity ratio [11] of 2.64.

With `COC(=O)c1cc2c([nH]c3ccc(NC(=O)c4cccs4)cc32)c(C)n1` the pIC50 [1] was less than 4.00.

Compound `COC(=O)c1cc2c([nH]c3ccc(NC(=O)c4cc(OC)c(OC)c(OC)c4)cc32)c(C)n1` has a pIC50 [1] of 4.00.

With `COC(=O)c1cc2c([nH]c3ccc(NC(=O)c4ccc(C(F)(F)F)cc4)cc32)c(C)n1` the IC50 [1] was “Nd(Insoluble)” and the solubility [2] was “Insoluble”.

`COC(=O)c1cc2c([nH]c3ccc(NC(=O)c4ccc(C(C)(C)C)cc4)cc32)c(C)n1` showed a pIC50 [3] of 5.33, a pIC50 [4] of 5.44 and a pIC50 [5] of 5.44. For the same compound, the pIC50 [6] was 5.38, the pIC50 [7] was 5.49 and the Activity [8] was “Active”. The Activity [9] was “Active”, the pIC50 [1] was 4.17 and the pIC50 [10] was 4.49. The selectivity ratio [11] was 0.47.

Compound `COCC(=O)Nc1ccc2[nH]c3c(C)nc(C(=O)OC)cc3c2c1` has a pIC50 [1] of less than 4.00.

In the case of `COC(=O)c1cc2c([nH]c3ccc(NC(=O)c4ccc(C)cc4)cc32)c(C)n1`, the IC50 [1] was “Nd(Insoluble)” and the solubility [2] was “Insoluble”.

In the case of `COC(=O)c1cc2c([nH]c3ccc(NC(=O)c4ccccc4)cc32)c(C)n1`, the pIC50 [1] was less than 4.00.

With `COC(=O)c1cc2c([nH]c3ccc(NC(=O)C4CCCCC4)cc32)c(C)n1` the pIC50 [1] was 4.63, the pIC50 [10] was 4.11 and the selectivity ratio [11] was 3.27.

`Clc1cc2c([nH]c3cnccc32)c(Cl)c1OCC1CC1` gave a pIC50 [12] of 7.10.

`COc1ccc2[nH]c3cnccc3c2c1Br` showed a pIC50 [13] of 6.00.

Work on `COC(=O)c1cc2c([nH]c3ccc(N)cc32)c(C)n1` yielded a pIC50 [1] of less than 4.00.

With `COC(=O)c1cc2c([nH]c3ccc(NC(=O)c4ccc(OC)cc4)cc32)c(C)n1` the IC50 [1] was “Nd(Insoluble)” and the solubility [2] was “Insoluble”.
